This passage reports MIC, inhibition and Stability results from ChEMBL document CHEMBL3867459, “A cell-based approach to characterize antimicrobial compounds through kinetic dose response” (Bioorg Med Chem, 2016).

The test system of series [1] is Escherichia coli. The series is described as follows: Antibacterial activity against Escherichia coli K-12 BW25113 measured every 10 mins after 24 hrs in absence of biotin. The class given is functional.
For series [2], the system named is Escherichia coli. Nature of the series: Antibacterial activity against Escherichia coli K-12 BW25113 measured every 10 mins after 24 hrs in presence of biotin. In kind it is functional.
Series [3] relates to Escherichia coli. Nature of the series: Inhibition of Escherichia coli His-tagged bioA at 1 uM using KAPA as substrate after 20 mins in presence of SAM relative to control.
Series [4] in a line: Chemical stability assessed as compound decomposition in double distilled water at 40 ug/ml at pH 7.4 after 24 hrs by HPLC analysis. The class given is physicochemical. The settings on record: buffer, pH 7.4, 24 h.

≈ marks a conversion by molar mass, not a printed value.

Turning to `NNC(=O)CS`, the MIC turned out to be 256 µg/mL (≈ 2410 µM) in the series on Escherichia coli [1] and 256 µg/mL in the series on Escherichia coli [2]. In the series on Escherichia coli [3], the inhibition was 20%.
With `O=[N+]([O-])/C=C/c1cccc(F)c1`, in series [4], the Stability entry is “Unstable”.
Take `NNC(=O)CSc1ccccc1Cl`: the MIC against Escherichia coli [1] was 16 µg/mL (≈ 73.8 µM); with Escherichia coli [2] it was greater than 256 µg/mL. Also, the inhibition with Escherichia coli [3] was determined as 63%.
In the same order, the values of `NNC(=O)CSc1ccccc1[N+](=O)[O-]` are 8 µg/mL (≈ 35.2 µM), greater than 256 µg/mL and 100%.
With `O=C1C=CC(=O)N1Cc1cccs1`, the Stability entry in series [4] was “Unstable”.
With `CSCC(=O)NN`, the minimal inhibitory concentration (MIC) in the series on Escherichia coli [1] turned out to be 64 µg/mL (≈ 533 µM); in the series on Escherichia coli [2], 64 µg/mL. In addition, the inhibition in the series on Escherichia coli [3] was 50%.
Regarding `Cc1ccccc1SCC(=O)NN`, the MIC against Escherichia coli [1] was 16 µg/mL (≈ 81.5 µM); in the series with Escherichia coli [2], greater than 256 µg/mL. Further, in the series with Escherichia coli [3], the inhibition came out at 81%.
Turning to `S=C1SCN(Cc2cccnc2)CN1Cc1cccnc1`, the Stability entry in series [4] was “Unstable”.
Turning to `CC(=O)NN`, the MIC came to 128 µg/mL (≈ 1730 µM) in the series on Escherichia coli [1] and 128 µg/mL in the series on Escherichia coli [2]. Also, in the series on Escherichia coli [3], the inhibition came out at 7%.

As usually defined, the MIC is the lowest concentration that inhibits growth of the organism. A word on the inhibition: it is the relative decrease from the control value, in per cent.
